Like-named read-outs stand apart in the source and are kept apart here.
Experiments:
[1] = target: T1, H3R-445 (Homo sapiens, UniProt Q9Y5N1); assay: cell-based; set-up: species or system HEK293-EPAC stably expressing H3R isoform; details: for Emax: HEK293-EPAC stably expressing H3R isoform, read-out: H3R-445 α
[2] = target: T2, H3R-415 (Homo sapiens, UniProt Q9Y5N1); assay: cell-based; set-up: species or system HEK293-EPAC stably expressing H3R isoform; details: for Emax: HEK293-EPAC stably expressing H3R isoform, read-out: H3R-415 α
[3] = target: T3, H3R-365 (Homo sapiens, UniProt Q9Y5N1); assay: cell-based; set-up: species or system HEK293-EPAC stably expressing H3R isoform; details: for Emax: HEK293-EPAC stably expressing H3R isoform, read-out: H3R-365 α
[4] = target: T4, H3R-453 (Homo sapiens, UniProt Q9Y5N1); assay: cell-based; set-up: species or system HEK293-EPAC stably expressing H3R isoform; details: for H3R-453 α: relative to histamine, agonist; for Emax: HEK293-EPAC stably expressing H3R isoform, read-out: H3R-453 α
[5] = target: T5, H3R-413 (Homo sapiens, UniProt Q9Y5N1, DEL274-305); assay: cell-based; set-up: species or system HEK293-EPAC stably expressing H3R isoform
[6] = target: T5, H3R-413; assay: cell-based; set-up: species or system HEK293-EPAC stably expressing H3R isoform; details: for H3R-413 α: relative to histamine, agonist; for Emax: HEK293-EPAC stably expressing H3R isoform, read-out: H3R-413 α
[7] = target: T6, H3R-373 (Homo sapiens, UniProt Q9Y5N1, INS445KMKKKTCL); set-up: species or system HEK293-EPAC stably expressing H3R isoform; details: agonist
[8] = target: T1, H3R-445; assay: cell-based; set-up: species or system HEK293-EPAC stably expressing H3R isoform; details: for H3R-445 α: relative to histamine, agonist; for Emax: HEK293-EPAC stably expressing H3R isoform, read-out: H3R-445 α
[9] = target: T3, H3R-365; assay: cell-based; set-up: species or system HEK293-EPAC stably expressing H3R isoform; details: for H3R-365 α: relative to histamine, agonist; for Emax: HEK293-EPAC stably expressing H3R isoform, read-out: H3R-365 α
[10] = target: T2, H3R-415; assay: cell-based; set-up: species or system HEK293-EPAC stably expressing H3R isoform; details: for H3R-415 α: relative to histamine, agonist; for Emax: HEK293-EPAC stably expressing H3R isoform, read-out: H3R-415 α
[11] = target: T6, H3R-373; assay: cell-based; set-up: species or system HEK293-EPAC stably expressing H3R isoform; details: for H3R-373 α: relative to histamine, agonist; for Emax: HEK293-EPAC stably expressing H3R isoform, read-out: H3R-373 α
[12] = target: T5, H3R-413; assay: biochemical
[13] = target: T3, H3R-365; assay: cell-based; set-up: species or system HEK293-EPAC stably expressing H3R isoform
[14] = target: T6, H3R-373; set-up: species or system HEK293-EPAC stably expressing H3R isoform; details: inverse agonism, constitutive signaling; antagonist
[15] = target: T2, H3R-415; assay: cell-based; set-up: species or system HEK293-EPAC stably expressing H3R isoform
[16] = target: T6, H3R-373
[17] = target: T4, H3R-453; assay: cell-based; details: HEK293-EPAC stably expressing H3R isoform, read-out: H3R-453 α
[18] = target: T1, H3R-445; assay: cell-based; details: HEK293-EPAC stably expressing H3R isoform, read-out: H3R-445 α
[19] = target: T2, H3R-415; assay: cell-based; details: HEK293-EPAC stably expressing H3R isoform, read-out: H3R-415 α
[20] = target: T3, H3R-365; assay: cell-based; details: HEK293-EPAC stably expressing H3R isoform, read-out: H3R-365 α
[21] = target: T2, H3R-415; assay: biochemical
[22] = target: T3, H3R-365; assay: biochemical
[23] = target: T1, H3R-445; assay: biochemical
[24] = target: T4, H3R-453; set-up: species or system HEK293-EPAC stably expressing H3R isoform; details: agonist
[25] = target: T1, H3R-445; assay: cell-based; set-up: species or system HEK293-EPAC stably expressing H3R isoform
[26] = target: T1, H3R-445; assay: cell-based; set-up: species or system HEK293-EPAC stably expressing H3R isoform; remark: listed apart in the source
[27] = target: T2, H3R-415; assay: cell-based; set-up: species or system HEK293-EPAC stably expressing H3R isoform; remark: listed apart in the source
[28] = inverse agonism, pitolisant = -1, antagonist

EC50 [5] [nM] | H3R-373 pEC50 [7] [M] | Ki [12] [nM] | Ki [16] [nM] | Emax [4] [%] | Emax [6] [%] | Emax [8] [%] | Emax [9] [%] | Emax [10] [%] | Emax [11] [%] | SMILES | further results
– | – | – | – | – | – | – | – | – | – | C[C@@H]1CCCN1CCc1cc2cc(-c3ccc(C#N)cc3)ccc2o1 [ABT-239, 4-[2-[2-[(2R)-2-methylpyrrolidin-1-yl]ethyl]-1-benzofuran-5-yl]benzonitrile] | Emax [1]: -100 ± 20%; Emax [2]: -50 ± 30%; Emax [3]: -110%
0.2 | 10.1 ± 0.2 | – | – | – | – | – | – | – | – | c1nc(CC2CCNCC2)c[nH]1 [Immepip] | H3R-453 α [4]: 0.9 ± 0.1%; H3R-413 α [6]: 1.0 ± 0.0%; H3R-445 α [8]: 1.0 ± 0.0%; H3R-365 α [9]: 1.1 ± 0.1%; H3R-415 α [10]: 0.9 ± 0.1%; H3R-373 α [11]: 0.8 ± 0.2%
0.631 | – | – | – | – | – | – | – | – | – | CN1CCC(Cc2c[nH]cn2)CC1 [Methimepip] | H3R-453 α [4]: 1.1 ± 0.2%; H3R-413 α [6]: 1.0 ± 0.1%; H3R-445 α [8]: 1.0 ± 0.2%; H3R-365 α [9]: 0.8 ± 0.4%; H3R-415 α [10]: 0.8 ± 0.1%; H3R-373 α [11]: 0.8 ± 0.1%
– | – | 5.01 | 126 | – | – | – | – | – | – | CCNC(=O)C1CC(F)(c2ccc(CN3CCCC3)c(F)c2)C1 (stereo not shown) [PF-3654746, N-ethyl-3-fluoro-3-[3-fluoro-4-(pyrrolidin-1-ylmethyl)phenyl]cyclobutane-1-carboxamide] | Emax [1]: -120 ± 40%; EC50 [13]: 1 nM; H3R-373 pEC50 [14]: 9.1 ± 0.4 M; Emax [2]: -110 ± 30%; EC50 [15]: 0.501 nM; Emax [3]: -100 ± 10%
– | – | – | – | – | – | – | – | – | – | C[C@@H](N)Cc1cnc[nH]1 [RAMH, (2R)-1-(3H-imidazol-4-yl)propan-2-amine] | Emax [17]: 140 ± 10%; Emax [18]: 100%; Emax [19]: 110 ± 40%; Emax [20]: 100 ± 20%
– | 9.0 ± 0.8 | 1.26 | 0.316 | 90 ± 40 | 80 ± 10 | 80 ± 20 | 70 ± 20 | 50 ± 20 | 70 ± 30 | N=C(N)SCCCc1cnc[nH]1 [VUF8328, 3-(1H-imidazol-5-yl)propyl carbamimidothioate] | Ki [21]: 1.58 nM; Ki [22]: 0.794 nM; Ki [23]: 1.26 nM
– | – | 2 | 0.398 | 90 ± 30 | 80 ± 20 | 90 | 70 ± 20 | 50 ± 10 | 60 ± 20 | CCCNC1CN(c2ccnc(N)n2)C1 [VUF16839, 4-(3-(Propylamino)azetidin-1-yl)pyrimidin-2-amine] | H3R-453 pEC50 [24]: 8.0 ± 0.1 M; EC50 [25]: 1 nM
– | – | 2.51 | 79.4 | – | – | – | – | – | – | O=C(c1ccc(CN2CCOCC2)cc1)N1CCN(C2CC2)CC1 [bavisant, (4-Cyclopropyl-piperazin-1-yl)-(4-morpholin-4-ylmethyl-phenyl)-methanone] | H3R-445 α [1, 28]: -1.0 ± 0,3%; EC50 [13]: 3.98 nM; EC50 [26]: 1 nM; H3R-415 α [2, 28]: -0.9 ± 0.0%; EC50 [15]: 0.794 nM; H3R-365 α [3, 28]: -1.0 ± 0.0%
– | – | – | – | – | – | – | – | – | – | N=C(NCc1ccc(Cl)cc1)SCCCc1c[nH]cn1 [clobenpropit, N’-[(4-chlorophenyl)methyl]-1-[3-(3H-imidazol-4-yl)propylsulfanyl]methanimidamide] | Emax [1]: -100 ± 30%; Emax [2]: -80%; Emax [3]: -80 ± 10%
79.4 | 7.9 ± 0.4 | 31.6 | 20 | – | 50 ± 20 | 60 ± 20 | 100 ± 20 | 40 ± 10 | 70 ± 10 | CN(C)CCCCCc1c[nH]cn1 [dimethyl-impentamine, 5-(3H-imidazol-4-yl)-N,N-dimethylpentan-1-amine] | Ki [21]: 31.6 nM; Ki [22]: 20 nM; Ki [23]: 25.1 nM
– | 9.5 ± 0.4 | 1.58 | 0.398 | 120 ± 30 | 90 | 100 ± 10 | 90 ± 30 | 80 ± 10 | 80 ± 10 | NCCCCc1c[nH]cn1 [imbutamine, 4-(3H-imidazol-4-yl)butan-1-amine] | –
0.316 | – | 0.631 | 0.126 | 100 ± 30 | 100 | 90 ± 10 | 110 ± 20 | 70 | 80 ± 30 | N=C(N)SCCc1cnc[nH]1 [imetit, 2-(3H-imidazol-4-yl)ethylsulfanylmethanimidamide] | –
31.6 | 8.0 ± 0.0 | 5.01 | 1 | 100 ± 20 | 90 ± 10 | 90 ± 10 | 100 ± 10 | 70 ± 10 | 80 ± 10 | c1ccc(COCCCc2c[nH]cn2)cc1 [proxyfan, 4-[3-(phenylmethoxy)propyl]-3H-imidazole] | H3R-453 pEC50 [24]: 7.2 ± 0.4 M; EC50 [25]: 7.94 nM; EC50 [27]: 15.8 nM
– | – | – | – | – | – | – | – | – | – | S=C(NC1CCCCC1)N1CCC(c2c[nH]cn2)CC1 [thioperamide, N-cyclohexyl-4-(3H-imidazol-4-yl)piperidine-1-carbothioamide] | Emax [1]: -90 ± 10%; Emax [2]: -80 ± 80%; Emax [3]: -100%

SMILES | EC50 [5] [nM] | H3R-373 pEC50 [7] [M] | Ki [12] [nM] | Ki [16] [nM] | Emax [4] [%] | Emax [6] [%] | Emax [8] [%] | Emax [9] [%] | Emax [10] [%] | Emax [11] [%] | further results
c1cc(Cc2cnc[nH]2)ccn1 [immethridine, 4-(3H-imidazol-4-ylmethyl)pyridine] | – | 10.1 ± 0.7 | 0.398 | 0.1 | 110 ± 40 | 100 ± 10 | 90 ± 20 | 110 ± 50 | 70 ± 10 | 90 ± 10 | –

From publication doi:10.1101/2023.12.06.570349v1 (biorxiv, 2023)
